According to US10344060B2 (priority 2013, dated 2019):
Where two headings read alike, the source gives them in different places. Bridge positions count the residues as written; N and C are the ends. Square brackets hold non-standard residues; d marks the D form. Peptide text beside a SMILES is read from it. Cha = N[C@@H](CC1CCCCC1)C(=O)O; Ala(CN) = N#CC[C@H](N)C(=O)O; Nle = CCCC[C@H](N)C(=O)O; Pra = C#CC[C@H](N)C(=O)O

Legend:
[1] = target: hNav1.7 (Homo sapiens, UniProt Q15858); experiment: cell-based; assay type: cell-based; settings: for IC50: PatchXpress, read-out: PX hNav1.7 Tonic IC50
Sequence of hNav1.7 (Q15858 whole entry): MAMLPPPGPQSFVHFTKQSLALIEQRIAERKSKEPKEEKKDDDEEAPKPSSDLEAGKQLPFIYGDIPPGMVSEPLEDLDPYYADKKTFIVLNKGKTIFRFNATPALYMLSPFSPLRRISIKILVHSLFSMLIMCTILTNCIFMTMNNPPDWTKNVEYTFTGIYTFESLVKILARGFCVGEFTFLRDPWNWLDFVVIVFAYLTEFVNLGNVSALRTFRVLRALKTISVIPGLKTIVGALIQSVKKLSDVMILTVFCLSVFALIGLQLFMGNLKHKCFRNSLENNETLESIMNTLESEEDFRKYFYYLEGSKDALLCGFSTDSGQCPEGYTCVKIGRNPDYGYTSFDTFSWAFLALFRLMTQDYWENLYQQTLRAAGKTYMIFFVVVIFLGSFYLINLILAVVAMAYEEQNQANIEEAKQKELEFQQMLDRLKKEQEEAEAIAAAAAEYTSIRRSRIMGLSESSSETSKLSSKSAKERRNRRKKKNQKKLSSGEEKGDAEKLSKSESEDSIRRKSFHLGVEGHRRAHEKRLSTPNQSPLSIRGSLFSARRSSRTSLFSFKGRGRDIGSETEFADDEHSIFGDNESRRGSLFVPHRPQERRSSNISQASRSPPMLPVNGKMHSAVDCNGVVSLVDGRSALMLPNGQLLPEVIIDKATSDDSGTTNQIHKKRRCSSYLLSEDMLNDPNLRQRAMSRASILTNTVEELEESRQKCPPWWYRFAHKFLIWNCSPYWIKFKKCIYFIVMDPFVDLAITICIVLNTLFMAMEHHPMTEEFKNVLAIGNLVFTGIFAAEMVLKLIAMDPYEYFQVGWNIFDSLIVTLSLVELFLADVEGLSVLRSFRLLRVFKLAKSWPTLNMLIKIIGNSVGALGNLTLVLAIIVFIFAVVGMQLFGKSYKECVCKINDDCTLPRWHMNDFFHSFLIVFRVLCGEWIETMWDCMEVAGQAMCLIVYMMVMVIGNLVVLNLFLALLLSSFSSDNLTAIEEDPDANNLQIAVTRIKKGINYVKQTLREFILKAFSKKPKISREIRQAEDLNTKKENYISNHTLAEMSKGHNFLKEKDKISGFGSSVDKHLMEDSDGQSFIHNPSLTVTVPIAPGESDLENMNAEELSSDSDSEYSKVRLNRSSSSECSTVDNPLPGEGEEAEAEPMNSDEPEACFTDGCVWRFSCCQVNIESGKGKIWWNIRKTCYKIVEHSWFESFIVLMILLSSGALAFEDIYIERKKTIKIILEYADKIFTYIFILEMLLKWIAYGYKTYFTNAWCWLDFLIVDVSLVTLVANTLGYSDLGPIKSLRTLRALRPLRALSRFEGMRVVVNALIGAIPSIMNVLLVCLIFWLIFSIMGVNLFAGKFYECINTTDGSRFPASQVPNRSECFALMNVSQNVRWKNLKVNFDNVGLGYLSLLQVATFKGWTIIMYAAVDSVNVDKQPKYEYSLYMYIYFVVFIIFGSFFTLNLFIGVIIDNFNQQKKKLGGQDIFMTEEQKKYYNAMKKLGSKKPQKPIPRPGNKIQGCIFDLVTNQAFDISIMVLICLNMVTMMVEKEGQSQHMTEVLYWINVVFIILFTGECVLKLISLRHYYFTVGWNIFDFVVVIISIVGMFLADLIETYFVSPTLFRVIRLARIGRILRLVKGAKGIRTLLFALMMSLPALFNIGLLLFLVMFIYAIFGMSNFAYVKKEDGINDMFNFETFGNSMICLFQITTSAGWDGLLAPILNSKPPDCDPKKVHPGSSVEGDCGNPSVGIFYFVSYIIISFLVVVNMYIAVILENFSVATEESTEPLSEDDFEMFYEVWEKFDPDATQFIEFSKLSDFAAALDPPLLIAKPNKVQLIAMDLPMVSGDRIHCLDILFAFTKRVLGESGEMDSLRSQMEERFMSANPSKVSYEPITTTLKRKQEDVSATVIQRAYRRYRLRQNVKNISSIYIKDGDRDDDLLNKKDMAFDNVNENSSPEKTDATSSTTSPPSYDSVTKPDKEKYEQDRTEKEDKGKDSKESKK

[2] = target: hNav1.4 (Homo sapiens, UniProt P35499); experiment: cell-based; assay type: cell-based; settings: for IC50: PatchXpress, read-out: PX hNav1.4 Tonic IC50; for Nav1.4/Nav1.7: ratio of PX tonic IC50 values
Sequence of hNav1.4 (P35499 whole entry): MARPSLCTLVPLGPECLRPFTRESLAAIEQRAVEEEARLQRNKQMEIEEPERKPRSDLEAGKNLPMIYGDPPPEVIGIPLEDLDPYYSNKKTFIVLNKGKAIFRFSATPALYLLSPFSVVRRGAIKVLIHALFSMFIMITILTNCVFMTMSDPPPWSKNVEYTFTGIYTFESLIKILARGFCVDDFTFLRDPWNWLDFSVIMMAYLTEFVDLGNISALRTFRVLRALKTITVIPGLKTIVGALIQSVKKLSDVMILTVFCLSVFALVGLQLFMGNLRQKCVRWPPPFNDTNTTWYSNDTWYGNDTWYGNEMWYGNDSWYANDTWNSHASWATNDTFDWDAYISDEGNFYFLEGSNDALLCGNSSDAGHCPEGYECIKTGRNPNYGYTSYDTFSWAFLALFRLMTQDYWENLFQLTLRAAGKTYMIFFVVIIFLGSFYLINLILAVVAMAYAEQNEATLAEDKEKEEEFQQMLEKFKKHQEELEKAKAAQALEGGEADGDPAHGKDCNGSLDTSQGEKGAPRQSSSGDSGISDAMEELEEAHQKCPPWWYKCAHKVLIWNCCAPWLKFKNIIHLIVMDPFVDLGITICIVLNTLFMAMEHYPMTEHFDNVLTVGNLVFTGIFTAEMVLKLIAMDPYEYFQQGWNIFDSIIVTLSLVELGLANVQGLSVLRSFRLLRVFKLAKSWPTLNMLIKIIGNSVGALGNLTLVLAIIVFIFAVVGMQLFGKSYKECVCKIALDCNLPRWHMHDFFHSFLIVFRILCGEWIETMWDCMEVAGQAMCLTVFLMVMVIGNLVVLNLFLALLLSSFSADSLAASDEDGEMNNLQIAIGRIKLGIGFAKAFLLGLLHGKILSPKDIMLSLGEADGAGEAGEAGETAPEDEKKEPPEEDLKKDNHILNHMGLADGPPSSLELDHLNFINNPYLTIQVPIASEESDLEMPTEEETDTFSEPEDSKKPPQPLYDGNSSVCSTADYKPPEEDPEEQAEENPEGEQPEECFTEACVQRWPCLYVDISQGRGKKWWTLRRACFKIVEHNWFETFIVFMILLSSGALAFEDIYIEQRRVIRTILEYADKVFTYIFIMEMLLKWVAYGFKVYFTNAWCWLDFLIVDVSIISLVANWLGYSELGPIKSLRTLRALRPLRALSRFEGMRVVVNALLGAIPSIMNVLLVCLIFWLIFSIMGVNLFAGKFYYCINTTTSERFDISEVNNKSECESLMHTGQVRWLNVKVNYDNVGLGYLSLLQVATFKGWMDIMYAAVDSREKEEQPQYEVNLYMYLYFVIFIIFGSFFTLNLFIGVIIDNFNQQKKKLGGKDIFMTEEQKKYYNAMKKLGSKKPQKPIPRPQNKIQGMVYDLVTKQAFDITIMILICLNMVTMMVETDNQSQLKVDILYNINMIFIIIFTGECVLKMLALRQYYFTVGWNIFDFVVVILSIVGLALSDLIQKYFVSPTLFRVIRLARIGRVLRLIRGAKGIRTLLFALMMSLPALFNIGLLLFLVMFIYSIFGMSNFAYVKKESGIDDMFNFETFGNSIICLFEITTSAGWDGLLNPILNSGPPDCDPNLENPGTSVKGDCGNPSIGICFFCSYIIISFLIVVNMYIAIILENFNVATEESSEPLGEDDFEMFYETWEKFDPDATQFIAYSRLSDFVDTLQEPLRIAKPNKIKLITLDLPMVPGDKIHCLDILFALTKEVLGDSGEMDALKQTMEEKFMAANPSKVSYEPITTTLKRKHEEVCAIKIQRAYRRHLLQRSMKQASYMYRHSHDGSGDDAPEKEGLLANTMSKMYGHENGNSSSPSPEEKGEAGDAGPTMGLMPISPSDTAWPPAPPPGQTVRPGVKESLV

Compound: C#CC[C@@H]1NC(=O)[C@@H]2CSSC[C@H](NC(=O)[C@H](CCC(=O)O)NC(=O)[C@@H](N)CC#N)C(=O)N[C@@H](CCC(N)=O)C(=O)N[C@@H](CCCCN)C(=O)N[C@@H](Cc3c[nH]c4ccccc34)C(=O)N[C@@H](CCCC)C(=O)N[C@@H](Cc3c[nH]c4ccccc34)C(=O)N[C@@H]([C@@H](C)O)C(=O)N[C@H]3CSSC[C@H](NC(=O)[C@H](CCCNC(=N)N)NC(=O)[C@H](CC(C)C)NC(=O)CNC1=O)C(=O)N[C@@H](CCCCN)C(=O)N[C@@H](CC(C)C)C(=O)N[C@@H](Cc1c[nH]c4ccccc14)C(=O)N[C@H](C(=O)N[C@@H](CCCNC(=N)N)C(=O)N[C@@H](CCCCN)C(=O)N[C@@H](CCC(=O)O)C(=O)N[C@@H](CC1CCCCC1)C(N)=O)CSSC[C@H](NC(=O)[C@H](C)NC(=O)[C@H](CCCNC(=N)N)NC(=O)[C@H](CCCCN)NC(=O)[C@H](CCC(=O)O)NC(=O)[C@H](CC(=O)O)NC3=O)C(=O)N2 [compound 869] (H-[Ala(CN)]ECQKW[Nle]WTCDEKRACC[Pra]GLRCKLWCRKE[Cha]-NH2; disulfide 3-17, 10-22, 16-26)
- IC50 ([1]; Table 12, tonic block): 0.95 nM
- IC50 ([2]; Table 12, tonic block): 294 nM
- Nav1.4/Nav1.7 ([2]; Table 12): 311

Compound: C#CC[C@@H]1NC(=O)[C@@H]2CSSC[C@H](NC(=O)[C@H](CCC(=O)O)NC(=O)[C@@H](N)CC#N)C(=O)N[C@@H](CCC(N)=O)C(=O)N[C@@H](CCCCN)C(=O)N[C@@H](Cc3c[nH]c4ccccc34)C(=O)N[C@@H](CCCC)C(=O)N[C@@H](Cc3c[nH]c4ccccc34)C(=O)N[C@@H]([C@@H](C)O)C(=O)N[C@H]3CSSC[C@H](NC(=O)[C@H](CCCNC(=N)N)NC(=O)[C@H](CC(C)C)NC(=O)CNC1=O)C(=O)N[C@@H](CCCCN)C(=O)N[C@@H](CC(C)C)C(=O)N[C@@H](Cc1c[nH]c4ccccc14)C(=O)N[C@H](C(=O)N[C@@H](CCCNC(=N)N)C(=O)N[C@@H](CCCCN)C(=O)N[C@@H](CCC(=O)O)C(=O)N[C@@H](CC1CCCCC1)C(N)=O)CSSC[C@H](NC(=O)[C@H](C)NC(=O)[C@H](CCCNC(=N)N)NC(=O)[C@H](CCCCN)NC(=O)[C@H](CO)NC(=O)[C@H](CC(=O)O)NC3=O)C(=O)N2 [compound 866]
- IC50 ([1]; Table 12, tonic block): 0.321 nM
- IC50 ([2]; Table 12, tonic block): 37.6 nM
- Nav1.4/Nav1.7 ([2]; Table 12): 117

Compound: C#CC[C@H](N)C(=O)N[C@@H](Cc1ccc(O)cc1)C(=O)N[C@H]1CSSC[C@@H]2NC(=O)[C@@H]3CSSC[C@@H](C(=O)N[C@@H](CCCNC(=N)N)C(=O)N[C@@H](CCCCN)C(=O)N[C@@H](CCC(=O)O)C(=O)N[C@@H](Cc4c[nH]c5ccccc45)C(N)=O)NC(=O)[C@H](Cc4c[nH]c5ccccc45)NC(=O)[C@H](CC(C)C)NC(=O)[C@H](CCCCN)NC(=O)[C@H](CSSC[C@H](NC(=O)[C@H]([C@@H](C)O)NC(=O)[C@H](Cc4c[nH]c5ccccc45)NC(=O)[C@H](CCCC)NC(=O)[C@H](Cc4c[nH]c5ccccc45)NC(=O)[C@H](CCCCN)NC(=O)[C@H](CCC(N)=O)NC1=O)C(=O)N[C@@H](CC(=O)O)C(=O)N[C@@H](CO)C(=O)N[C@@H](CCCCN)C(=O)N[C@@H](CCCNC(=N)N)C(=O)N[C@@H](C)C(=O)N3)NC(=O)[C@H](CCCNC(=N)N)NC(=O)[C@H](CC(C)C)NC(=O)CNC(=O)[C@H](CCC(=O)O)NC2=O [compound 450]
- IC50 ([1]; Table 12, tonic block): 0.782 nM
- IC50 ([2]; Table 12, tonic block): 36.7 nM
- Nav1.4/Nav1.7 ([2]; Table 12): 47

Compound: C#CC[C@H](N)C(=O)N[C@@H](Cc1ccc(O)cc1)C(=O)N[C@H]1CSSC[C@@H]2NC(=O)[C@@H]3CSSC[C@@H](C(=O)N[C@@H](CCCNC(=N)N)C(=O)N[C@@H](CCCCN)C(=O)N[C@@H](CCC(=O)O)C(=O)N[C@H](C(N)=O)[C@@H](C)CC)NC(=O)[C@H](Cc4c[nH]c5ccccc45)NC(=O)[C@H](CC(C)C)NC(=O)[C@H](CCCCN)NC(=O)[C@H](CSSC[C@H](NC(=O)[C@H]([C@@H](C)O)NC(=O)[C@H](Cc4c[nH]c5ccccc45)NC(=O)[C@H](CCCC)NC(=O)[C@H](Cc4c[nH]c5ccccc45)NC(=O)[C@H](CCCCN)NC(=O)[C@H](CCC(N)=O)NC1=O)C(=O)N[C@@H](CC(=O)O)C(=O)N[C@@H](CO)C(=O)N[C@@H](CCC(=O)O)C(=O)N[C@@H](CCCNC(=N)N)C(=O)N[C@@H](C)C(=O)N3)NC(=O)[C@H](CCCNC(=N)N)NC(=O)[C@H](CC(C)C)NC(=O)CNC(=O)[C@H](CCCCN)NC2=O [compound 728]
- IC50 ([1]; Table 12, tonic block): 8.76 nM
- IC50 ([2]; Table 12, tonic block): 405 nM
- Nav1.4/Nav1.7 ([2]; Table 12): 46

Compound: C#CC[C@@H]1NC(=O)[C@H](CO)NC(=O)[C@H](CC(=O)O)NC(=O)[C@@H]2CSSC[C@@H]3NC(=O)[C@H](CCCNC(=N)N)NC(=O)[C@H](CC(C)C)NC(=O)CNC(=O)[C@H](CCC(=O)O)NC(=O)[C@H](CSSC[C@H](NC(=O)[C@H](Cc4ccc(O)cc4)NC(=O)[C@@H](N)CC#N)C(=O)N[C@@H](CCC(N)=O)C(=O)N[C@@H](CCCCN)C(=O)N[C@@H](Cc4c[nH]c5ccccc45)C(=O)N[C@@H](CCCC)C(=O)N[C@@H](Cc4c[nH]c5ccccc45)C(=O)N[C@@H]([C@@H](C)O)C(=O)N2)NC(=O)[C@H](CSSC[C@@H](C(=O)N[C@@H](CCCNC(=N)N)C(=O)N[C@@H](CCCCN)C(=O)N[C@@H](CCC(=O)O)C(=O)N[C@H](C(N)=O)[C@@H](C)CC)NC(=O)[C@H](Cc2c[nH]c4ccccc24)NC(=O)[C@H](CC(C)C)NC(=O)[C@H](CCCCN)NC3=O)NC(=O)[C@H](C)NC(=O)[C@H](CCCNC(=N)N)NC1=O [compound 521]
- IC50 ([1]; Table 12, tonic block): 1.48 nM
- IC50 ([2]; Table 12, tonic block): 92.1 nM
- Nav1.4/Nav1.7 ([2]; Table 12): 62

Compound: C#CC[C@@H]1NC(=O)[C@@H]2CSSC[C@H](NC(=O)[C@H](Cc3ccc(O)cc3)NC(=O)[C@@H](N)CC#N)C(=O)N[C@@H](CCC(N)=O)C(=O)N[C@@H](CCCCN)C(=O)N[C@@H](Cc3c[nH]c4ccccc34)C(=O)N[C@@H](CCCC)C(=O)N[C@@H](Cc3c[nH]c4ccccc34)C(=O)N[C@@H]([C@@H](C)O)C(=O)N[C@H]3CSSC[C@H](NC(=O)[C@H](CCCNC(=N)N)NC(=O)[C@H](CC(C)C)NC(=O)CNC1=O)C(=O)N[C@@H](CCCCN)C(=O)N[C@@H](CC(C)C)C(=O)N[C@@H](Cc1c[nH]c4ccc(Br)cc14)C(=O)N[C@H](C(=O)N[C@@H](CCCNC(=N)N)C(=O)N[C@@H](CCCCN)C(=O)N[C@H](C(=O)N[C@H](C(N)=O)[C@@H](C)CC)[C@@H](C)CC)CSSC[C@H](NC(=O)[C@H](C)NC(=O)[C@H](CCCNC(=N)N)NC(=O)[C@H](CCCCN)NC(=O)[C@H](CCC(=O)O)NC(=O)[C@H](CC(=O)O)NC3=O)C(=O)N2 [compound 1244]
- IC50 ([1]; Table 12, tonic block): 0.64 nM
- IC50 ([2]; Table 12, tonic block): 7.4 nM
- Nav1.4/Nav1.7 ([2]; Table 12): 12

Compound: C#CC[C@@H]1NC(=O)[C@@H]2CSSC[C@H](NC(=O)[C@H](Cc3ccc(O)cc3)NC(=O)[C@@H](N)CC#N)C(=O)N[C@@H](CCC(N)=O)C(=O)N[C@@H](CCCCN)C(=O)N[C@@H](Cc3c[nH]c4ccccc34)C(=O)N[C@@H](CCCC)C(=O)N[C@@H](Cc3c[nH]c4ccccc34)C(=O)N[C@@H]([C@@H](C)O)C(=O)N[C@H]3CSSC[C@H](NC(=O)[C@H](CCCNC(=N)N)NC(=O)[C@H](CC(C)C)NC(=O)CNC1=O)C(=O)N[C@@H](CCCCN)C(=O)N[C@@H](CC(C)C)C(=O)N[C@@H](Cc1c[nH]c4ccc(Br)cc14)C(=O)N[C@H](C(=O)N[C@@H](CCCNC(=N)N)C(=O)N[C@@H](CCCCN)C(=O)N[C@H](C(=O)N[C@H](C(N)=O)[C@@H](C)CC)[C@@H](C)CC)CSSC[C@H](NC(=O)[C@H](C)NC(=O)[C@H](CCCNC(=N)N)NC(=O)[C@H](CCCCN)NC(=O)[C@H](CO)NC(=O)[C@H](CC(=O)O)NC3=O)C(=O)N2 [compound 872]
- IC50 ([1]; Table 12, tonic block): 1.09 nM
- IC50 ([2]; Table 12, tonic block): 3.6 nM
- Nav1.4/Nav1.7 ([2]; Table 12): 3

Compound: CC[C@H](C)[C@H](NC(=O)[C@@H](NC(=O)[C@H](CCCCN)NC(=O)[C@H](CCCNC(=N)N)NC(=O)[C@@H]1CSSC[C@@H]2NC(=O)[C@H](C)NC(=O)[C@H](CCCNC(=N)N)NC(=O)[C@H](CCCCN)NC(=O)[C@H](CO)NC(=O)[C@H](CC(=O)O)NC(=O)[C@@H]3CSSC[C@H](NC(=O)[C@H](CCCNC(=N)N)NC(=O)[C@H](CC(C)C)NC(=O)CNC(=O)[C@H](CCC(=O)O)NC(=O)[C@H](CSSC[C@H](NC(=O)[C@@H](N)Cc4ccc(O)cc4)C(=O)N[C@@H](CCC(=O)O)C(=O)N[C@@H](CCCCN)C(=O)N[C@@H](Cc4c[nH]c5ccccc45)C(=O)N[C@@H](CCSC)C(=O)N[C@@H](Cc4c[nH]c5ccccc45)C(=O)N[C@@H]([C@@H](C)O)C(=O)N3)NC2=O)C(=O)N[C@@H](CCCCN)C(=O)N[C@@H](CC(C)C)C(=O)N[C@@H](Cc2c[nH]c3ccccc23)C(=O)N1)[C@@H](C)CC)C(N)=O [compound 50]
- IC50 ([1]; tonic, Table 11): 58.7 nM
- Nav1.4/Nav1.7 ([1]; ratio of PX tonic IC50 values, Table 11): 8
- IC50 ([2]; tonic, Table 11): 453 nM

Compound: C#CC[C@H](N)C(=O)N[C@@H](Cc1ccc(O)cc1)C(=O)N[C@H]1CSSC[C@@H]2NC(=O)[C@@H]3CSSC[C@@H](C(=O)N[C@@H](CCCNC(=N)N)C(=O)N[C@@H](CCCCN)C(=O)N[C@@H](CC(C)C)C(=O)N[C@H](C(N)=O)[C@@H](C)CC)NC(=O)[C@H](Cc4c[nH]c5ccccc45)NC(=O)[C@H](CC(C)C)NC(=O)[C@H](CCCCN)NC(=O)[C@H](CSSC[C@H](NC(=O)[C@H]([C@@H](C)O)NC(=O)[C@H](Cc4c[nH]c5ccccc45)NC(=O)[C@H](CCCC)NC(=O)[C@H](Cc4c[nH]c5ccccc45)NC(=O)[C@H](CCCCN)NC(=O)[C@H](CCC(N)=O)NC1=O)C(=O)N[C@@H](CC(=O)O)C(=O)N[C@@H](CO)C(=O)N[C@@H](CCCCN)C(=O)N[C@@H](CCCNC(=N)N)C(=O)N[C@@H](C)C(=O)N3)NC(=O)[C@H](CCCNC(=N)N)NC(=O)[C@H](CC(C)C)NC(=O)CNC(=O)[C@H](CCC(=O)O)NC2=O [compound 655]
- IC50 ([1]; Table 12, tonic block): 2.91 nM
- IC50 ([2]; Table 12, tonic block): 25.9 nM
- Nav1.4/Nav1.7 ([2]; Table 12): 9
